These compounds were tested on Recombinant human AMPK proteins (α1β1γ1, α2β1γ1, α1(1-335), α1(1-394) or α2(1-394)) (assay: Scintillation Proximity Assay (SPA) of AMPK activation). Conditions: activator concentration for 50% of maximal enzyme activity; 50 nM recombinant AMPK, 2 μM ATP, 30° C., 2 hr.
Format: biochemical
Procedure, shortened: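 Recombinant human AMPK (α1β1γ1, α2β1γ1 or α-subunit truncations), fully pre-phosphorylated, was used at 50 nM with 2 μM biotin-SAMS, 2 μM ATP plus [γ-^33P]ATP in Tris-HCl pH 7.5, MgCl2, DTT, 2 hr at 30° C. Product was captured on streptavidin SPA beads. EC50 was the activator concentration giving 50% of maximal activity.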

| SMILES | EC50 [nM] |
| --- | --- |
| O=C(O)c1cccc(CN2C(=O)/C(=C(\c3ccccc3)c3ccc(Cl)cc3)c3cc(F)ccc32)c1 [Example 53, 3-{3-[1-(4-Chloro-phenyl)-1-phenyl-meth-(E)-ylidene]-5-fluoro-2-oxo-2,3-dihydro-indol-1-ylmethyl}-benzoic acid] | 5890 |
| O=C(O)c1cccc(CN2C(=O)/C(=C(\c3ccccc3)c3ccc(C(F)(F)F)cc3)c3ccccc32)c1 [Example 48, 3-{2-Oxo-3-[1-phenyl-1-(4-trifluoromethyl-phenyl)-meth-(E)-ylidene]-2,3-dihydro-indol-1-ylmethyl}-benzoic acid] | 3150 |
| COC(=O)c1cccc(CN2C(=O)/C(=C(\c3ccccc3)c3ccc(S(N)(=O)=O)cc3)c3ccccc32)c1 [Example 31, 3-{2-Oxo-3-[1-phenyl-1-(4-sulfamoyl-phenyl)-meth-(E)-ylidene]-2,3-dihydro-indol-1-ylmethyl}-benzoic acid methyl ester] | 770 |
| COC(=O)c1cccc(CN2C(=O)/C(=C(/c3ccc(Cl)cc3)C3CCCCC3)c3ccccc32)c1 [Example 87, 3-{3-[1-(4-Chloro-phenyl)-1-cyclohexyl-meth-(E)-ylidene]-2-oxo-2,3-dihydro-indol-1-ylmethyl}-benzoic acid methyl ester] | 10600 |
| O=C(O)c1cccc(CN2C(=O)/C(=C(\c3ccccc3)c3ccccc3Cl)c3ccccc32)c1 [Example 75, 3-{3-[1-(2-Chloro-phenyl)-1-phenyl-meth-(E)-ylidene]-2-oxo-2,3-dihydro-indol-1-ylmethyl}-benzoic acid] | 1840 |
| COC(=O)c1cccc(CN2C(=O)/C(=C(/CCC(C)C)c3ccccc3)c3ccccc32)c1 [Example 77, 3-[3-(4-Methyl-1-phenyl-pent-(Z)-ylidene)-2-oxo-2,3-dihydro-indol-1-ylmethyl]-benzoic acid methyl ester] | 2580 |
| O=C(O)c1cccc(CN2C(=O)/C(=C(/c3ccc(Cl)cc3)C3CCCCC3)c3ccccc32)c1 [Example 104, 3-{3-[1-(4-Chloro-phenyl)-1-cyclohexyl-meth-(E)-ylidene]-2-oxo-2,3-dihydro-indol-1-ylmethyl}-benzoic acid] | 4630 |
| COC(=O)c1cccc(CN2C(=O)/C(=C(/Cc3ccc(Cl)cc3)c3ccccc3)c3ccccc32)c1 [Example 79, 3-{3-[2-(4-Chloro-phenyl)-1-phenyl-eth-(Z)-ylidene]-2-oxo-2,3-dihydro-indol-1-ylmethyl}-benzoic acid methyl ester] | 1690 |

— patent publication US8778973B2, “Alkene oxindole derivatives” (Hoffmann-La Roche Inc., priority 2009, dated 2014)
